From patent US20160102052A1, “Use of Cysteamine in Treating Infections caused by Yeasts/Moulds” (priority 2014, published 2016)

Tested on: Candida albicans 73/025
Experiment: Minimum inhibitory concentration test of cysteamine (Lynovex, NM001), CLSI M27-A3
Type: cell-based
Details: vulvovaginal isolate 73/025; RPMI-1640, 35° C., read at 24 h and 48 h
Protocol: The aim of the experiment was to determine the MIC of Lynovex (NM001) against vulvovaginal isolate Candida albicans 73/025. Plates were prepared which contain a serial doubling dilution of Lynovex (NM001) at 2× final concentration. The cultures were then prepared in 2×RPMI-1640, according to the CLSI M27-A3 protocol, and mixed in equal volumes in the plate resulting in 1×RPMI-1640, the concentration of compound mentioned below, and the CLSI standard inoculum for C. albicans. These were incubated at 35° C. and read at 24 h and 48 h on the BioTek plate reader.
• 1. Culture of Candida albicans grown overnight at 30° C. • 2. Culture removed from incubator. Add 2 ml sterile dH2O to the overnight culture and wash the cells from the surface of the agar. Cells placed in fresh bijou tube. • 3. Serial doubling dilution carried out and measured against same volume of MacFarland Standard • a. 100 μl culture added to well A1 of microtitre plate. • b. 100 μl sterile dH2O added to wells A2-A11. • c. 100 μl culture added to well A2 of microtitre plate and mixed well resulting in a 1 in 2 dilution. • d. 100 μl taken from A2 and added to A3 on plate and mixed well resulting in a 1 in 4 dilution. • e. This is continued to A11 where 100 μl is removed and discarded. • f. […] Plate read at OD530 on BioTek • h. […]
• 1. […] The plate is read in the BioTek at OD530. • 3. […]

SMILES: NCCS [NM001, cysteamine]
- growth of Candida albicans: inhibited the growth
